Experimental data as given in patent publication EP3284739A1, “SUBSTITUTED (HET) ARYL COMPOUNDS AS PESTICIDES” (Bayer CropScience Aktiengesellschaft, priority 2017, dated 2018).

Legend:
[1] = logP by reversed-phase HPLC (LC-MS), neutral range; assay type: physicochemical; details: c18 hplc, ammonium bicarbonate/acetonitrile; pH 7.8, 0,001 molar aqueous Ammoniumhydrogencarbonat / Acetonitril, C 18, 55°C
Description: Die Messung der logP Werte erfolgt gemäß EEC Directive 79/831 Annex V.A8 durch HPLC (High Performance Liquid Chromatography) an einer Phasenumkehrsäule (C 18). Temperatur: 55°C. Die Bestimmung mit der LC-MS im sauren Bereich erfolgt bei pH 2,7 mit 0,1 % wässriger Ameisensäure und Acetonitril (enthält 0,1% Ameisensäure) als Eluenten; linearer Gradient von 10% Acetonitril bis 95% Acetonitril. In der Tabelle logP (HCOOH) genannt.
Die Bestimmung mit der LC-MS im neutralen Bereich erfolgt bei pH 7.8 mit 0,001 molarer wässriger Ammoniumhydrogencarbonat-Lösung und Acetonitril als Eluenten; linearer Gradient von 10 % Acetonitril bis 95 % Acetonitril. In der Tabelle logP (neutral) genannt.
Die Eichung erfolgt mit unverzweigten Alkan-2-onen (mit 3 bis 16 Kohlenstoffatomen), deren logP-Werte bekannt sind (Bestimmung der logP-Werte anhand der Retentionszeiten durch lineare Interpolation zwischen zwei aufeinander folgenden Alkanonen).

Spodoptera frugiperda = Spodoptera frugiperda spray test (maize leaf discs, caterpillars); assay type: in vivo; details: foliar, 168 h, Aufwandmenge 500g/ha, after 7 days, read-out: Wirkung
Text: (§1) Zur Herstellung einer zweckmäßigen Wirkstoffzubereitung löst man 1 Gewichtsteil Wirkstoff mit den angegebenen Gewichtsteilen Lösungsmittel und füllt mit Wasser, welches eine Emulgatorkonzentration von 1000 ppm enthält, bis zum Erreichen der gewünschten Konzentration auf. Zur Herstellung weiterer Testkonzentrationen wird mit emulgatorhaltigem Wasser verdünnt.
Maisblattscheiben (Zea mays) werden mit einer Wirkstoffzubereitung der gewünschten Konzentration gespritzt und nach dem Abtrocknen mit Raupen des Heerwurms (Spodoptera frugiperda) besetzt.
Nach 7 Tagen wird die Wirkung in % bestimmt. Dabei bedeutet 100 %, dass alle Raupen abgetötet wurden; 0 % bedeutet, dass keine Raupe abgetötet wurde.

Ctenocephalides felis = Ctenocephalides felis oral test (feeding on treated citrated cattle blood); assay type: in vivo; details: 48 h, Aufwandmenge 100ppm, after 2 days, read-out: Wirkung (Abtötung)
Description: Zwecks Herstellung einer zweckmäßigen Wirkstoffzubereitung vermischt man 10 mg Wirkstoff mit 0,5 ml Dimethylsulfoxid. Durch Verdünnen mit citriertem Rinderblut erhält man die gewünschte Konzentration.
Ca. 20 nüchterne adulte Katzenflöhe (Ctenocephalides felis) werden in eine Kammer eingesetzt, die oben und unten mit Gaze verschlossen ist. Auf die Kammer wird ein Metallzylinder gestellt, dessen Unterseite mit Parafilm verschlossen ist. Der Zylinder enthält die Blut-Wirkstoffzubereitung, die von den Flöhen durch die Parafilmmembran aufgenommen werden kann.
Nach 2 Tagen wird die Abtötung in % bestimmt. Dabei bedeutet 100 %, dass alle Flöhe abgetötet wurden; 0 % bedeutet, dass keiner der Flöhe abgetötet wurde.

Phaedon cochleariae = Phaedon cochleariae spray test (Chinese cabbage leaf discs, larvae); assay type: in vivo; details: foliar, 168 h, read-out: Wirkung
Text: as §1
Chinakohlblattscheiben (Brassica pekinensis) werden mit einer Wirkstoffzubereitung der gewünschten Konzentration gespritzt und nach dem Abtrocknen mit Larven des Meerrettichblattkäfers (Phaedon cochleariae) besetzt.
Nach 7 Tagen wird die Wirkung in % bestimmt. Dabei bedeutet 100 %, dass alle Käferlarven abgetötet wurden; 0 % bedeutet, dass keine Käferlarven abgetötet wurden.

Row | Structure (SMILES) | chromatographic logP [1] | mortality at 500 g/ha (Spodoptera frugiperda) [%] | mortality at 100 µg/mL (Ctenocephalides felis) [%] | mortality at 500 g/ha (Phaedon cochleariae) [%]
1 | Nc1cc(N)cc(-c2ccc(C(F)(F)C(F)(F)F)c(F)c2)c1 [3'-Fluor-4'-(pentafluorethyl)biphenyl-3,5-diamin] | 2.83 | – | – | –
2 | Nc1cc(Br)c(Cl)c(N)n1 [4-Brom-3-chlorpyridin-2,6-diamin] | 1.46 | – | – | –
3 | O=C(Cc1ccc(C(F)(F)F)cc1)Nc1cc(-c2ccc(OC(F)(F)F)cc2)cc(NC(=O)C2CC2)n1 [I-002] | – | 100 | – | –
4 | N#Cc1cccc(CC(=O)Nc2cc(-c3ccc(OC(F)(F)F)cc3)cc(NC(=O)C3CC3)n2)c1 [I-003] | – | 100 | 100 | –
5 | CC1(C(=O)Nc2cc(-c3ccc(OC(F)(F)F)cc3)cc(NC(=O)C3CC3)n2)CC1 [I-004] | – | 100 | 100 | 100
6 | N#CC1(C(=O)Nc2cc(-c3ccc(OC(F)(F)F)cc3)cc(NC(=O)C3CC3)n2)CC1 [I-005] | – | 100 | 100 | 83
7 | N#Cc1ccc(CC(=O)Nc2cc(-c3ccc(OC(F)(F)F)cc3)cc(NC(=O)C3CC3)n2)cc1 [I-007] | – | 83 | 100 | –
8 | CC(C)(C#N)C(=O)Nc1cc(-c2ccc(OC(F)(F)F)cc2)cc(NC(=O)C2CC2)n1 [I-009] | – | 100 | – | –
9 | CC(C)(C(=O)Nc1cc(-c2ccc(OC(F)(F)F)cc2)cc(NC(=O)C2CC2)n1)c1ccccc1 [I-010] | – | – | – | 100
10 | CC1(C(=O)Nc2cc(-c3ccc(OC(F)(F)F)cc3)cc(NC(=O)C3CC3)n2)CCCC1 [I-011] | – | 100 | – | –
11 | O=C(Nc1cc(-c2ccc(OC(F)(F)F)cc2)cc(NC(=O)C2(Cl)CC2)n1)C1CC1 [I-013] | – | 100 | – | –
12 | CC(C)(C(=O)Nc1cc(-c2ccc(OC(F)(F)F)cc2)cc(NC(=O)C2CC2)n1)C(F)(F)F [I-016] | – | 100 | – | 100
13 | CC(C)C(=O)Nc1cc(-c2ccc(OC(F)(F)F)cc2)cc(NC(=O)C2CC2)n1 [I-018] | – | 100 | 100 | 100
14 | CCCCC(=O)Nc1cc(-c2ccc(OC(F)(F)F)cc2)cc(NC(=O)C2CC2)n1 [I-019] | – | 100 | – | 100
15 | CCC(=O)Nc1cc(-c2ccc(OC(F)(F)F)cc2)cc(NC(=O)C2CC2)n1 [I-020] | – | 100 | – | 100
16 | O=C(Nc1cc(-c2ccc(OC(F)(F)F)cc2)cc(NC(=O)C2CC2)n1)C1CCCC1 [I-021] | – | 100 | 100 | –
17 | CC(=O)Nc1cc(-c2ccc(OC(F)(F)F)cc2)cc(NC(=O)C2CC2)n1 [I-022] | – | 100 | 100 | 100
18 | CCCC(=O)Nc1cc(-c2ccc(OC(F)(F)F)cc2)cc(NC(=O)C2CC2)n1 [I-023] | – | 100 | 100 | 100
19 | N#CCCC(=O)Nc1cc(-c2ccc(OC(F)(F)F)cc2)cc(NC(=O)C2CC2)n1 [I-025] | – | 100 | – | 83
20 | O=C(Nc1cc(-c2ccc(OC(F)(F)F)cc2)cc(NC(=O)C2CC2)n1)c1ccccc1 [I-026] | – | 100 | 100 | 83
21 | N#Cc1ccc(C(=O)Nc2cc(-c3ccc(OC(F)(F)F)cc3)cc(NC(=O)C3CC3)n2)cc1 [I-027] | – | 100 | 100 | 100
22 | O=C(Nc1cc(-c2ccc(OC(F)(F)F)cc2)cc(NC(=O)C2CC2(C2CC2)C2CC2)n1)C1CC1 (centres unmarked) [I-028] | – | 100 | 100 | 100
23 | CCN(C(=O)C1CC1)c1cc(-c2ccc(OC(F)(F)F)cc2)cc(N(CC)C(=O)C2CC2)n1 [I-29, N,N'-{4-[4-(Trifluormethoxy)phenyl]pyridin-2,6-diyl}bis(N-ethylcyclopropancarboxamid)] | 4.05 | – | – | –
24 | CN(C(=O)C1CC1)c1cc(-c2ccc(OC(F)(F)F)cc2)cc(NC(=O)C2CC2)n1 [I-31, N-{6-[(Cyclopropylcarbonyl)amino]-4-[4-(trifluormethoxy)phenyl]pyridin-2-yl}-N-methylcyclopropancarboxamid] | 3.66 | – | – | –

Row | Structure (SMILES) | chromatographic logP [1] | mortality at 500 g/ha (Spodoptera frugiperda) [%] | mortality at 100 µg/mL (Ctenocephalides felis) [%] | mortality at 500 g/ha (Phaedon cochleariae) [%]
25 | O=C(Nc1cc(-c2ccc(OC(F)(F)F)cc2)c(Cl)c(NC(=O)C2CC2)n1)C1CC1 [I-038] | – | 83 | – | –
26 | Cc1cc(-c2cc(NC(=O)C3CC3)nc(NC(=O)C3CC3)c2)cc(F)c1C(F)(F)C(F)(F)F [I-040] | – | 100 | – | 100
27 | O=C(Nc1cc(-c2c(F)cc(C(F)(F)C(F)(F)F)cc2F)cc(NC(=O)C2CC2)n1)C1CC1 [I-041] | – | 83 | – | –
28 | O=C(Nc1cc(-c2cc(F)c(C(F)(F)C(F)(F)F)cc2Cl)cc(NC(=O)C2CC2)n1)C1CC1 [I-042] | – | 100 | – | –
29 | Cc1cc(-c2cc(NC(=O)C3CC3)nc(NC(=O)C3CC3)c2)ccc1C(F)(F)C(F)(F)F [I-043] | – | 100 | 100 | 100
30 | O=C(Nc1cc(-c2cc(F)c(C(F)(F)C(F)(F)F)c(F)c2)cc(NC(=O)C2CC2)n1)C1CC1 [I-044] | – | 100 | – | –
31 | O=C(Nc1cc(-c2ccc(C(F)(F)C(F)(F)F)c(F)c2F)cc(NC(=O)C2CC2)n1)C1CC1 [I-045] | – | 100 | – | 100
32 | O=C(Nc1cc(-c2ccc(C(F)(F)C(F)(F)F)c(Cl)c2)cc(NC(=O)C2CC2)n1)C1CC1 [I-046] | – | 100 | 100 | 100
33 | O=C(Nc1cc(-c2cc(F)c(C(F)(F)C(F)(F)F)c(F)c2F)cc(NC(=O)C2CC2)n1)C1CC1 [I-047] | – | 83 | – | –
34 | O=C(Nc1cc(-c2cc(F)c(C(F)(F)C(F)(F)F)cc2F)cc(NC(=O)C2CC2)n1)C1CC1 [I-048] | – | 100 | – | 83
35 | O=C(Nc1cc(NC(=O)C2CC2)cc(-c2ccc(C(F)(F)C(F)(F)F)c(F)c2)c1)C1CC1 [I-050] | – | 100 | 100 | 100
36 | CC(C)C(=O)Nc1cc(NC(=O)C(C)C)cc(-c2ccc(C(F)(F)C(F)(F)F)c(F)c2)c1 [I-051] | – | 100 | 100 | 100
37 | CC(C)C(=O)Nc1cc(-c2ccc(C(F)(F)C(F)(F)F)c(F)c2)cc(NC(=O)C(C)C)n1 [I-052] | – | 100 | 100 | 100
38 | O=C(Nc1cc(-c2cc(F)c(C(F)(F)C(F)(F)F)c(Cl)c2)cc(NC(=O)C2CC2)n1)C1CC1 [I-053] | – | 100 | – | 100
39 | CC(C)C(=O)Nc1cc(-c2ccc(C(F)(F)C(F)(F)F)c(F)c2)cc(NC(=O)C2CC2)n1 [I-054] | – | 100 | – | 100
40 | CCC(=O)Nc1cc(-c2ccc(C(F)(F)C(F)(F)F)c(F)c2)cc(NC(=O)C2CC2)n1 [I-055] | – | 100 | 100 | 100
41 | CC(=O)Nc1cc(-c2ccc(C(F)(F)C(F)(F)F)c(F)c2)cc(NC(=O)C2CC2)n1 [I-056] | – | 100 | – | 100
42 | N#CC1(C(=O)Nc2cc(-c3ccc(C(F)(F)C(F)(F)F)c(F)c3)cc(NC(=O)C3CC3)n2)CC1 [I-057] | – | 100 | – | –
43 | CCC(=O)Nc1cc(-c2ccc(C(F)(F)C(F)(F)F)c(F)c2)cc(NC(=O)CC)n1 [I-058] | – | 100 | – | 100
44 | CC(=O)Nc1cc(-c2ccc(C(F)(F)C(F)(F)F)c(F)c2)cc(NC(C)=O)n1 [I-059] | – | 100 | – | 100
45 | N#Cc1ccc(CC(=O)Nc2cc(NC(=O)C3CC3)cc(-c3ccc(C(F)(F)C(F)(F)F)c(F)c3)c2)cc1 [I-061] | – | 83 | – | –
46 | O=C(Nc1cc(-c2c(F)cc(C(F)(F)C(F)(F)F)c(F)c2F)cc(NC(=O)C2CC2)n1)C1CC1 [I-062] | – | 100 | – | 100
47 | O=C(Nc1cc(Br)cc(NC(=O)C2CC2)n1)C1CC1 [N,N'-(4-Brompyridin-2,6-diyl)dicyclopropancarboxamid] | 2.35 | – | – | –
48 | CC1(C)OB(c2cc(NC(=O)C3CC3)nc(NC(=O)C3CC3)c2)OC1(C)C [N,N'-[4-(4,4,5,5-Tetramethyl-1,3,2-dioxaborolan-2-yl)pyridin-2,6-diyl]dicyclopropancarboxamid] | 0.89 | – | – | –
